Measurements as given in article PMC7024345 (Molecules, 2020).
Values joined by “and” are separate entries in the source; they are usually repeats but may differ in a detail not shown here. Equal entries are not always repeated. Where two headings read alike, the source gives them in different places.

Assays:
[1] = molecular target: T1, eeAChE (AChE from electrophorus electricus) (Electrophorus electricus, UniProt O42275); experiment: biochemical; format: biochemical; details: for fold enhancement of eeAChE inhibitory activity: 10 carbon linker compound compared to 6 carbon linker analogue (compounds 3 and 4); for IC50: Ellman's method, ATCI substrate, 30 °C
T1 construct: purchased Sigma-Aldrich (St. Louis, MO, USA)
Method: (§1) Acetylcholinesterase and butyrylcholinesterase inhibitory activities of the compounds under study were evaluated spectrophotometrically following Ellman’s method using AChE from electrophorus electricus (eeAChE) and BChE from equine serum (eqBChE). The lyophilized enzymes were dissolved in sodium phosphate buffer (0.25 M, pH 7.4) to make a stock solution of eeAChE (1000 U/mL) or eqBChE (25 U/mL). […] Briefly, in each well, 100 μL of phosphate buffer, 40 μL of DTNB, 20 μL of the tested compounds (100 µM solution dissolved in 0.1% DMSO and phosphate buffer) and 20 μL of cholinesterase solution were pre-incubated in a 96-well microplate for 5 min at 30 °C. […] The rate of the reaction before adding the enzyme was subtracted from that obtained after enzyme addition in order to correct for spontaneous hydrolysis of substrate.

[2] = molecular target: T2, eqBChE (BChE from equine serum) (Equus caballus, UniProt P81908); experiment: biochemical
T2 construct: BChE from equine serum (eqBChE); purchased Sigma-Aldrich (St. Louis, MO, USA); host or cells: equine serum
Method: as §1

[3] = test system: differentiated SH-SY5Y cells; experiment: Neuroprotection against glutamate, MTT reduction; format: cell-based, human; details: mean ± SD; for MTT reduction, aggressor alone: glutamate 16 mM, 24 h; for MTT reduction: 30 min pre-treatment, then glutamate 16 mM 24 h
Method: (§2) After 30 min of pre-treatment with Compounds 7 (10 and 50 µM) and 11 (10 µM), the cells were exposed to different aggressors, described above, for 24 h.
(§3) Figure 6 Evaluation of the protective effects of Compounds 7 (10 and 50 µM) and 11 (10 µM) in SH-SY5Y cells against glutamate (16 mM, A), iron(III) (1 mM, B) and Aβ42 (25 µM, C) as oxidative stress inducers. The cells were pre-treated with antioxidants for 30 min and exposed to the aggressors for 24 h. The data are expressed as the means of three independent experiments together with the standard deviation (Mean ± SD). Statistical comparisons were estimated using the nonparametric method of Kruskal–Wallis [one-way ANOVA on ranks] followed by Dunn’s post hoc test (A,B) and using the parametric method of one-way analysis of variance (ANOVA) followed by Dunnett’s multiple comparison test (C, F = 364.2) (Supplementary Table S2). In all cases, p values lower than 0.05 were considered significant (^## p < 0.05, ^#### p < 0.0001 vs. control data; ** p < 0.01, *** p < 0.001, **** p < 0.0001 vs. aggressor values).
(§4) Differentiated human neuroblastoma cells were routinely cultured into […] flasks and maintained in DMEM high glucose (4.5 g/L glucose), supplemented with 10% heat-inactivated FBS (v/v), 1% NEAA (v/v) and 1% penicillin/streptomycin (v/v). The cell cultures were maintained at 37 °C in a humidified 5% CO2–95% air atmosphere and passaged once a week by trypsinization (0.25% trypsin). Neuroblastoma SH-SY5Y cells were seeded onto 96 well plates at a density of 25,000 cells/cm^2 in cell culture medium with trans-retinoic acid (RA, final concentration of 10 µM) and incubated for three days at 37 °C in a humidified, 5% CO2–95% air atmosphere. Then, the medium was supplemented with 12-O-tetradecanoylphorbol-13-acetate (TPA, final concentration of 80 nM), and cells were incubated for three days. Stock solutions of RA (10 mM) and TPA (160 µM) were prepared in DMSO. To avoid phenotypic changes, the cells used for all experiments were taken between the 19th and 28th passages.
(§5) The neuroprotective efficacy of mitochondriotropic antioxidants 7 and 11 was evaluated in a cell-based assay against diverse oxidative stress inducers. Briefly, SH-SY5Y cells were pre-treated with Compounds 7 and 11 followed by incubation with the well-described aggressors that play a role in AD progression, namely Aβ-amyloid 1-42 (Aβ42), ferric nitrilotriacetate (FeNTA) and glutamic acid. Differentiated SH-SY5Y cells were pre-treated with the test compounds 7 (10 and 50 µM) and 11 (10 µM) for 30 min. Then, a culture medium containing Aβ42 (25 µM), iron(III) (1 mM) or glutamic acid (16 mM) was added, and cells were incubated for additional 24 h. A negative control (cells treated with culture medium containing DMSO 0.1%) and a positive control (cells treated with culture medium containing DMSO 0.1%, followed by treatment with aggressors) were also included. Cell viability was estimated using the MTT reduction assay, as described by Fernandes et al..

[4] = test system: differentiated SH-SY5Y cells; experiment: Neuroprotection against iron(III), MTT reduction; format: cell-based, human; details: mean ± SD; for MTT reduction, aggressor alone: iron(III) 1 mM, 24 h; for MTT reduction: 30 min pre-treatment, then iron(III) 1 mM 24 h
Method: as §2, §3, §4, §5

[5] = test system: differentiated SH-SY5Y cells; experiment: Neuroprotection against Aβ42, MTT reduction; format: cell-based, human; details: mean ± SD; for MTT reduction: 30 min pre-treatment, then Aβ42 25 µM 24 h; for MTT reduction, aggressor alone: Aβ42 25 µM, 24 h
Method: as §2, §3, §4, §5

[6] = Chemical stability observation; format: physicochemical
Excerpt: Accordingly, these two compounds were selected for the study as protective agents against glutamate, iron(III) and Aβ42.

SH-SY5Y cells = test system: SH-SY5Y cells; set-up: method as in PMID 30784884; details: at 50 µM; cited from earlier work
[7] = read-out: IC50 eeAChE, mean (CI 95%)
[8] = Ellman's method, BTCI substrate, 30 °C, read-out: IC50 eqBChE, mean (CI 95%)

T1 sequence (O42275 24-633): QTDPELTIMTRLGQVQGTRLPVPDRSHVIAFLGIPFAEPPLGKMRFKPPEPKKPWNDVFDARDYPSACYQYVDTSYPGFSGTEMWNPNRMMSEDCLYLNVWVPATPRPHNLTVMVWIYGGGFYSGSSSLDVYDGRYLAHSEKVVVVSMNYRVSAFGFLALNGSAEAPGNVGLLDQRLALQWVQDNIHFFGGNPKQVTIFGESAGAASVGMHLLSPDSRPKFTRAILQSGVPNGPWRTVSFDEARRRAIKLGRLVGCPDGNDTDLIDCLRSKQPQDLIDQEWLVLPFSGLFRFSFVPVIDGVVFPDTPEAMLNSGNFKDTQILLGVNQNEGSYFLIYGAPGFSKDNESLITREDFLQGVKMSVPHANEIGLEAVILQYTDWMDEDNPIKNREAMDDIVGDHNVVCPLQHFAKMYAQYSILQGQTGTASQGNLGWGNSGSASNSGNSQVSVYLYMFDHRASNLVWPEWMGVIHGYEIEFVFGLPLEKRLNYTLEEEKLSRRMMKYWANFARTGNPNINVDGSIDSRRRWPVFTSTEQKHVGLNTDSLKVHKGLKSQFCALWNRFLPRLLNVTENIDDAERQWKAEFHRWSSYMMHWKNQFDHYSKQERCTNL
T2 sequence (P81908 whole entry): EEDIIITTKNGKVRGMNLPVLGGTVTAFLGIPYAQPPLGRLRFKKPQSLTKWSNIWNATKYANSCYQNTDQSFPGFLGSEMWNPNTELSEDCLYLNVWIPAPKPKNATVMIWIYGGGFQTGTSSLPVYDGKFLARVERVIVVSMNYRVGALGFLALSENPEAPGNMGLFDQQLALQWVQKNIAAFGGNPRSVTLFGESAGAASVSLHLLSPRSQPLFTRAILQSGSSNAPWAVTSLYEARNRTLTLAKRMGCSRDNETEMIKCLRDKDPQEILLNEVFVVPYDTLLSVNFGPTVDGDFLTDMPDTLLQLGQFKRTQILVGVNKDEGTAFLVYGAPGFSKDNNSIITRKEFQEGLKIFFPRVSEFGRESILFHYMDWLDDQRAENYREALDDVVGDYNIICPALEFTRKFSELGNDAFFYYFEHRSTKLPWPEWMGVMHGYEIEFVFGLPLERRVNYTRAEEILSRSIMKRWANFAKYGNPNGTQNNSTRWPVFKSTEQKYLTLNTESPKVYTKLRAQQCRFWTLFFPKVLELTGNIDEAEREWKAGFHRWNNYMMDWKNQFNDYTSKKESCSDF

Compound | IC50 [1, 7] [nM] | SI: selectivity index = IC50 (eeAChE)/IC50 (eqBChE) [2] | IC50 [2, 8] [nM] | IC50 ([1]; IC50 eeAChE, mean (CI 95%)) [nM] | IC50 [2] [nM] | other results
O=C(/C=C/c1ccc(O)c(O)c1)NCCCCCCCCCC[P+](c1ccccc1)(c1ccccc1)c1ccccc1 [Compound 10] | 3590 | 23.9 | 150 | – | – | fold enhancement of eeAChE inhibitory activity [1]: 2 fold
N[C@@H](CCC(=O)O)C(=O)O [Glutamate, L-glutamic acid, reference compound] | – | – | – | – | – | MTT reduction, aggressor alone [3]: 72.68 ± 2.81 % ctrl; MTT reduction, aggressor alone ([3]; listed as glutamate): about 72.7 % ctrl
O=C(Cc1ccc(O)c(O)c1)NCCCCCC[P+](c1ccccc1)(c1ccccc1)c1ccccc1 [Compound 6] | – | 4.2 | – | 3880 | 930 | –
O=C(/C=C/c1cc(O)c(O)c(O)c1)NCCCCCC[P+](c1ccccc1)(c1ccccc1)c1ccccc1 [Compound 1] | 2940 | 7.2 | 410 | – | – | –
O=C(/C=C/c1ccc(O)c(O)c1)NCCCCCC[P+](c1ccccc1)(c1ccccc1)c1ccccc1 [Compound 4] | 6320 | 52.7 | 120 | – | – | –
O=C(Cc1ccc(O)c(O)c1)NCCCCCCCCCC[P+](c1ccccc1)(c1ccccc1)c1ccccc1 [Compound 12] | – | 10.2 | – | 2440 | 240 | –
O=C([O-])CN(CC(=O)[O-])CC(=O)[O-].[Fe+3] [Iron(III), ferric nitrilotriacetate, reference compound] | – | – | – | – | – | MTT reduction, aggressor alone [4]: 63.06 ± 6.25 % ctrl; MTT reduction, aggressor alone ([4]; listed as iron(III)): ~63.1 % ctrl
O=C(/C=C/c1cc(O)c(O)c(O)c1)NCCCCCCCCCC[P+](c1ccccc1)(c1ccccc1)c1ccccc1 [Compound 7] | 3390 | 30.8 | 110 | – | – | MTT reduction ([4]; compound 10 µM): 75.90 ± 5.25 % ctrl; MTT reduction ([4]; compound 50 µM): 80.22 ± 12.76 % ctrl and 80.2 % ctrl; MTT reduction ([5]; compound 10 µM): 72.55 ± 2.67 % ctrl; MTT reduction ([5]; compound 50 µM): 68.81 ± 0.70 % ctrl and 68.1 % ctrl; MTT reduction ([3]; compound 10 µM): 84.24 ± 5.32 % ctrl; MTT reduction ([3]; compound 50 µM): 81.90 ± 2.81 % ctrl and 81.9 % ctrl
O=C(CCc1cc(O)c(O)c(O)c1)NCCCCCC[P+](c1ccccc1)(c1ccccc1)c1ccccc1 [Compound 2] | – | 2.1 | – | 6760 | 3160 | –
Aβ-amyloid (1–42) [reference compound] | – | – | – | – | – | MTT reduction, aggressor alone [5]: 58.73 ± 2.76 % ctrl; MTT reduction, aggressor alone ([5]; listed as Aβ42): ~58.7 % ctrl
O=C(CCc1cc(O)c(O)c(O)c1)NCCCCCCCCCC[P+](c1ccccc1)(c1ccccc1)c1ccccc1 [Compound 8] | – | 7.2 | – | 5750 | 800 | –
O=C(CCc1ccc(O)c(O)c1)NCCCCCC[P+](c1ccccc1)(c1ccccc1)c1ccccc1 [Compound 5] | – | 0.4 | – | 1080 | 2520 | chemical stability [6]: showed chemical instability
O=C(Cc1cc(O)c(O)c(O)c1)NCCCCCCCCCC[P+](c1ccccc1)(c1ccccc1)c1ccccc1 [Compound 9] | – | – | – | 3350 | 530 | fold enhancement of eeAChE inhibitory activity [1]: 3 fold
O=C(Cc1cc(O)c(O)c(O)c1)NCCCCCC[P+](c1ccccc1)(c1ccccc1)c1ccccc1 [Compound 3] | – | 2.0 | – | 8980 | 4520 | –
O=C(CCc1ccc(O)c(O)c1)NCCCCCCCCCC[P+](c1ccccc1)(c1ccccc1)c1ccccc1 [Compound 11] | 1590 | 4.9 | 320 | – | – | MTT reduction ([4]; compound 10 µM): 82.87 ± 7.87 % ctrl and 82.9 % ctrl; MTT reduction ([5]; compound 10 µM): 66.43 ± 3.45 % ctrl and 66.4 % ctrl; MTT reduction ([3]; compound 10 µM): 74.97 ± 6.87 % ctrl; cytotoxicity (SH-SY5Y cells): presented cytotoxicity
